Source: publication PMC11373198, “In vitro efficacy of next-generation dihydrotriazines and biguanides against babesiosis and malaria parasites” (Antimicrobial Agents and Chemotherapy, 2024)
Read-outs that look alike come from different tables or passages of the source.

Assays:
[1] = test system: P. falciparum HB3; test: In vitro growth inhibition of P. falciparum HB3 (SYBR Green-I); type: cell-based, Plasmodium falciparum; conditions: DFS20 medium, read-out: PfHB3 (IC50 in nM)
[2] = test system: B. MO1; test: In vitro growth inhibition of B. MO1 in human erythrocytes (SYBR Green-I); type: cell-based, Babesia MO1; conditions: DFS20 medium
Protocol: (§1) The effect of DHT derivatives on the intraerythrocytic development of P. falciparum, B. duncani, B. divergens and B. MO1 and the determination of IC50 values were conducted as previously reported ([54], [67]). Briefly, the parasites cultured in vitro (0.1% parasitemia with 5% hematocrit in complete DFS20 medium or RPMI-1640) were treated with various concentrations of the compounds in a 96-well plate and incubated at 37 °C for either 60 h in the case of B. duncani or 72 h in the case of P. falciparum. Parasitemia was then determined using the SYBR Green-I method by adding an equal volume of parasite culture to the lysis buffer (0.008% saponin, 0.08% Triton-X-100, 20 mM Tris-HCl (pH = 7.5), and 5 mM EDTA) containing SYBR Green-I (0.01%). The mixture was then incubated at 37°C for 1 h in the dark. The fluorescence was measured at 480 nm (excitation) and 540 nm (emission) using a BioTek Synergy™ Mx Microplate Reader. Background fluorescence from uninfected erythrocytes maintained in a complete DFS20 and RPMI-1640 medium was subtracted from each sample, and the 50% inhibitory concentration (IC50) of the drug was determined by plotting drug concentrations versus parasite growth using GraphPad Prism 9.2.1. Data are shown as mean ± SD from two biological replicates with three technical replicates.

[3] = test system: B. divergens (Rouen87); test: In vitro growth inhibition of B. divergens in human erythrocytes (SYBR Green-I); type: cell-based; conditions: Babesia divergens, Erythrocyte, DFS20 medium
Protocol: as §1

[4] = test system: P. falciparum 3D7; test: In vitro growth inhibition of P. falciparum 3D7 (SYBR Green-I); type: cell-based, Plasmodium falciparum
[5] = test system: human cell lines (HepG2, HCT-116, HEK-293, and HeLa); test: Cytotoxicity on human cell lines, average / overall, and therapeutic index; type: cell-based; conditions: HepG2, HCT-116, HEK-293, HeLa, MTT 72 h
Protocol: HeLa, HepG2, HEK293, and HCT116 cell lines were obtained from the American Type Culture Collection (ATCC) and maintained in Dulbecco’s modified Eagle’s medium (DMEM) (Invitrogen 11995–065) containing 25 mM glucose, 1 mM sodium pyruvate, and supplemented with 5 mM HEPES, 10% FBS, and penicillin-streptomycin (50 U/mL penicillin, 50 µg/mL streptomycin). Cells were seeded in a 96-well tissue culture plate (20,000 cells per well) and allowed to adhere for 24 hours, after which they were treated with a 12-step 2-fold serial dilution of each drug starting at 1 mM as the highest final concentration. Cells maintained in the medium supplemented with either 0.1% or 10% DMSO were used as negative and positive vehicle controls, respectively. The plates were incubated at 37 °C for 72 h, after which each well was incubated with 0.5 mg/mL of MTT reagent (MP Chemicals #02102227) for 4 h in the dark at 37 °C. The formazan crystals formed by living cells were solubilized with the addition of 100 µL of DMSO to each well. We measured the OD590nm using a SpectraMax plate reader. From the obtained OD values, percent cell viability was estimated by normalizing to the mean of 10% DMSO wells (set as 100% toxicity) and mean of the vehicle control wells (set as 0% toxicity). Dose-response curves were plotted using GraphPad Prism version 9.1.2.

[6] = test system: B. duncani (WA-1); test: In vitro growth inhibition of B. duncani in human erythrocytes (SYBR Green-I); type: cell-based, Babesia duncani; conditions: for IC50: 60 h; for activity against B. duncani, structure-activity relationship: analogs compared within screening, 2-chloro, 4-trifluoromethoxy series or terminal aryl heterocycles
[7] = test system: P. falciparum Dd2; test: In vitro growth inhibition of P. falciparum Dd2 (SYBR Green-I); type: cell-based, Plasmodium falciparum; conditions: DFS20 medium, read-out: PfDd2 (IC50 in nM)
[8] = test system: B. microti; parameters: method as in PMID 7447406; conditions: Mongolian jirds; cited from earlier work
[9] = test system: Babesia bovis; parameters: method as in PMID 18794380, PMID 21904052; conditions: cited from earlier work
[10] = test system: Babesia gibsoni; parameters: method as in PMID 18794380, PMID 21904052; conditions: cited from earlier work
[11] = test system: B. duncani; parameters: method as in PMID 37055610; conditions: previous studies; read-out: IC50 against B. duncani; cited from earlier work
[12] = Plasmodium falciparum, HB3, 72 h
[13] = Plasmodium falciparum, 3D7, 72 h, DFS20 medium, 72 h, read-out: Pf3D7 (IC50 in nM)
[14] = Plasmodium falciparum, 3D7, DFS20, Table S3, read-out: P.falciparum 3D7 (IC50 in nM), DFS20
[15] = Plasmodium falciparum, 3D7, RPMI-1640 + 10% human serum, read-out: P.falciparum 3D7 (IC50 in nM), RPMI-1640 + 10%human serum
[16] = Babesia duncani, Erythrocyte, read-out: B. duncani WA1 (IC50 in nM), DFS20 medium, 60 h
[17] = Plasmodium falciparum, DD2, 72 h

Compound	IC50 [1, 12] [nM]	IC50 ([2]; Babesia, Erythrocyte) [nM]	IC50 [3] [nM]	IC50 [4, 13] [nM]	IC50 [4, 14] [nM]	IC50 [4, 15] [nM]	IC50 [5] [nM]	IC50 [6, 16] [nM]	IC50 [7, 17] [nM]	activity against B. duncani, structure-activity relationship [6]	IC50 ([1]; 72 h) [nM]	IC50 [2] [nM]	IC50 ([4]; DFS20 medium, 72 h, read-out: Pf3D7 (IC50 in nM)) [nM]	IC50 ([6]; read-out: B. duncani WA1 (IC50 in nM), DFS20 medium) [nM]	IC50 ([7]; 72 h) [nM]	activity against B. microti infection [8]	inhibition of in vitro parasite growth of Babesia bovis [9]	inhibition of in vitro parasite growth of Babesia gibsoni [10]	IC50 [11] [nM]
CC1(C)N=C(N)N=C(N)N1OCCCOc1ccc(Cl)cc1Cl [JPC-210]	0.4 ± 0.07	0.8 ± 0.24	3.1 ± 1.42	3.1 ± 1.24	1.6 ± 0.025	1.2 ± 0.1	69000	3.6 ± 0.42	0.05 ± 0.01										
COc1ccc(OCCCON2C(N)=NC(N)=NC2(C)C)cc1 [JPC-1044]	0.42 ± 0.25	0.2 ± 0.15	12 ± 0.16	3.3 ± 2	2 ± 0.02	3.8 ± 0.022	62000	7.1 ± 0.32	0.6 ± 0.14										
CC1(C)N=C(N)N=C(N)N1OCCCOc1ccc(-n2cncn2)cc1 [JPC-1059]	0.3 ± 0.17	5.4 ± 1.4	3.7 ± 0.7	2 ± 0.64	1.3 ± 0.09	1.4 ± 0.021	132000	10.3 ± 0.7	0.3 ± 0.02	beneficial									
CC1(C)N=C(N)N=C(N)N1OCCCOc1ccc(Cl)c(C#N)c1 [JPC-2053]	0.75 ± 0.34	0.6 ± 0.5	6.6 ± 1.7	2.6 ± 1.51	1.5 ± 0.071	1.4 ± 0.021	26000	13.4 ± 1.41	0.5 ± 0.045										
CC1(C)N=C(N)N=C(N)N1OCCCOc1ccccc1OC(F)(F)F [JPC-2060]	~0.6	~0.5	~4	~1.9	1.9 ± 0.29	0.8 ± 0.17	15000	~0.8	~0.4		0.7 ± 0.1	0.6 ± 0.07	2.3 ± 0.5	1 ± 0.06	0.77 ± 0.4				
CCC(C)C1(C)N=C(N)N=C(N)N1OCCCOc1cc(Cl)c(Cl)cc1Cl (centres unmarked) [JPC-2748]	0.41 ± 0.07	4 ± 0.74	3.7 ± 0.3	3 ± 0.77	0.2 ± 0.12	2 ± 0.061	1500	4.4 ± 0.01	12 ± 1.13										
CC1(C)N=C(N)N=C(N)N1OCCCOc1ccc(-c2nnnn2C(C)(C)C)cc1 [JPC-3671]	0.4 ± 0.02	6.5 ± 0.7	24 ± 2.14	1 ± 0.32	2.1 ± 0.016	2.6 ± 0.02	38000	1.6 ± 0.5	17 ± 1.5	beneficial									
NC1=NC(c2ccc(F)cc2)N(OCCCOc2ccc(OC(F)(F)F)cc2Cl)C(N)=N1 (centres unmarked) [JPC-3680]	2.1 ± 0.33	6 ± 0.5	40 ± 0.7	1.7 ± 0.7	1.2 ± 0.03	1.8 ± 0.3	10000	3.2 ± 0.21	37 ± 1.25	increased activity									
NC1=NC(c2cccnc2)N(OCCCOc2ccc(OC(F)(F)F)cc2Cl)C(N)=N1 (centres unmarked) [JPC-3681]	0.8 ± 0.07	1 ± 0.07	6.4 ± 0.7	2.3 ± 0.3	0.7 ± 0.072	1 ± 0.08	38000	2 ± 0.2	0.45 ± 0.03	increased activity									
Nc1ccc(S(=O)(=O)c2ccc(N)cc2)cc1 [dapsone]																little to no activity			
CN(Cc1cnc2nc(N)nc(N)c2n1)c1ccc(C(=O)N[C@@H](CCC(=O)O)C(=O)O)cc1 [methotrexate]																	moderate to effective inhibition	moderate to effective inhibition	
CCc1nc(N)nc(N)c1-c1ccc(Cl)cc1 [pyrimethamine, 2,4-Diamino-5-(4-chlorophenyl)−6-ethylpyrimidine]																little to no activity	moderate to effective inhibition	moderate to effective inhibition	940
Cc1cc(NS(=O)(=O)c2ccc(N)cc2)no1 [sulfamethoxazole]																little to no activity			
COc1cc(Cc2cnc(N)nc2N)cc(OC)c1OC [trimethoprim]																little to no activity	moderate to effective inhibition	moderate to effective inhibition	
